Laboratory results as given in patent US20100190878A1, “POLYOLEFIN RESIN COMPOSITION AND FOAM MOLDED ARTICLE” (SUMITOMO CHEMICAL COMPANY, LIMITED, priority 2008, published 2010).
Like-named read-outs stand apart in the source and are kept apart here.

Test: acid dissociation constant (pKa) by conventional titration

pKa | Molecule | pKa (acid dissociation constant of hindered amine light stabilizer)
8.9 | CN1C(C)(C)CC(OC(=O)CC(C(=O)OC2CC(C)(C)N(C)C(C)(C)C2)C(CC(=O)OC2CC(C)(C)N(C)C(C)(C)C2)C(=O)OC2CC(C)(C)N(C)C(C)(C)C2)CC1(C)C [Example D-2, tetrakis(1,2,2,6,6-pentamethyl-4-piperidyl) 1,2,3,4-butanetetracarboxylate] | 
9 | CC1(C)CC(OC(=O)CCCCCCCCC(=O)OC2CC(C)(C)NC(C)(C)C2)CC(C)(C)N1 [Example D-3, Bis(2,2,6,6-tetramethyl-4-piperidyl) sebacate] | 
4.4 | CCCCCCCCON1C(C)(C)CC(OC(=O)CCCCCCCCC(=O)OC2CC(C)(C)N(OCCCCCCCC)C(C)(C)C2)CC1(C)C [Example D-4, Bis(1-octyloxy-2,2,6,6-tetramethylpiperidin-4-yl) sebacate] | 
 | Condensate of N,N-bis(3-aminopropyl)ethylenediamine. 2,4-bis[N-butyl-N-(1,2,2,6,6-pentamethyl-4-pi peridyl)amino]-6-chloro-1,3,5-triazine [Example D-5] | 9.2
